Values quoted from earlier work as cited in US20110290909A1, “MULTI-COMPONENT INSECT ATTRACTANT” (priority 2006, published 2011).

Legend:
male melon flies = conditions: cue lure compared with raspberry ketone
male melon fruit flies = conditions: in vivo

| Compound | effects on mating success (male melon flies) | effectiveness as chemical attractant for male melon fruit flies (male melon fruit flies) |
| --- | --- | --- |
| CC(=O)CCc1ccc(OC(C)=O)cc1 [cue lure] | similar, short-lasting effects | – |
| CC(=O)CCc1ccc(O)cc1 [raspberry ketone] | similar, short-lasting effects | very effective chemical attractant |
